Test results published in patent US9216984B2, “3-[4-(7H-pyrrolo[2,3-D]pyrimidin-4-yl)-1H-pyrazol-1-yl]octane—or heptane-nitrile as JAK inhibitors” (Incyte Corporation, priority 2009, dated 2015).
Structures can show the parent of a compound that is named as a salt.

What was measured:
[1] = molecular target: human JAK2 (a.a. 828-1132) (Homo sapiens (Human), UniProt O60674); experiment: In vitro JAK kinase assay (HTRF, phosphorylation of biotinylated peptide); format: biochemical; settings: for IC50: at Km ATP (30 μM ATP for Jak2)
Chain of human JAK2 (a.a. 828-1132) (O60674 828-1132): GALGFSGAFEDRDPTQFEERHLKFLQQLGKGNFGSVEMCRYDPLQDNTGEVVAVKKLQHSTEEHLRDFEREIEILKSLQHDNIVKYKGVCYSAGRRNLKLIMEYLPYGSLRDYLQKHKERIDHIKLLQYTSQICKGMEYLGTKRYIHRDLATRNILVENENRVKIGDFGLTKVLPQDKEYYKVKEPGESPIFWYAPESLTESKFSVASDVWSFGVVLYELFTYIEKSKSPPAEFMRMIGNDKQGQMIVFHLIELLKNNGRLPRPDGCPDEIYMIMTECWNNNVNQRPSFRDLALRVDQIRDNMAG
Description: (§1) The compounds of the invention were tested for inhibitory activity of JAK targets according to the following in vitro assay described in Park et al., Analytical Biochemistry 1999, 269, 94-104. The catalytic domains of human JAK1 (a.a. 837-1142), JAK2 (a.a. 828-1132) and JAK3 (a.a. 781-1124) with an N-terminal His tag were expressed using baculovirus in insect cells and purified. The catalytic activity of JAK1, JAK2 or JAK3 was assayed by measuring the phosphorylation of a biotinylated peptide. The phosphorylated peptide was detected by homogenous time resolved fluorescence (HTRF). […] The ATP concentration in the reactions was 90 μM for Jak1, 30 μM for Jak2 and 3 μM for Jak3. Reactions were carried out at room temperature for 1 hr and then stopped with 20 μL 45 mM EDTA, 300 nM SA-APC, 6 nM Eu-Py20 in assay buffer (Perkin Elmer, Boston, Mass.). Binding to the Europium labeled antibody took place for 40 minutes and HTRF signal was measured on a Fusion plate reader (Perkin Elmer, Boston, Mass.).

[2] = molecular target: human JAK1 (a.a. 837-1142) (Homo sapiens, UniProt P23458); experiment: as above; format: biochemical; settings: at Km ATP (90 μM ATP for Jak1)
Description: as §1

Row | Compound | JAK2 activity compared with the other form/enantiomer (in words) [1] | IC50 [1] [nM] | IC50 [2] [nM]
1 | CCCCCC(CC#N)n1cc(-c2ncnc3[nH]ccc23)cn1 (single isomer, unassigned) [Example 1, first peak (free base), 3-[4-(7H-pyrrolo[2,3-d]pyrimidin-4-yl)-1H-pyrazol-1-yl]octanenitrile] | not as potent as the other enantiomer |  | 
2 | CCCCCC(CC#N)n1cc(-c2ncnc3[nH]ccc23)cn1.O=P(O)(O)O (single isomer, unassigned) [Example 1, second peak (phosphate salt), 3-[4-(7H-pyrrolo[2,3-d]pyrimidin-4-yl)-1H-pyrazol-1-yl]octanenitrile phosphoric acid salt] | similarly active |  | 
3 | CCCCC(CC#N)n1cc(-c2ncnc3[nH]ccc23)cn1 (single isomer, unassigned) [Example 2, first peak (free base), 3-[4-(7H-pyrrolo[2,3-d]pyrimidin-4-yl)-1H-pyrazol-1-yl]heptanenitrile] |  | 1.4 | 1.8

Further lines, results first:

Row | JAK2 activity compared with the other form/enantiomer (in words) [1] | IC50 [1] [nM] | IC50 [2] [nM] | Compound
4 |  | 0.3 | 0.57 | CCCCC(CC#N)n1cc(-c2ncnc3[nH]ccc23)cn1 (single isomer, unassigned) [Example 2, second peak (free base), 3-[4-(7H-pyrrolo[2,3-d]pyrimidin-4-yl)-1H-pyrazol-1-yl]heptanenitrile]
5 |  | 0.65 | 2 | CCCCC(CC#N)n1cc(-c2ncnc3[nH]ccc23)cn1 (single isomer, unassigned) [Example 2, second peak (phosphate salt), 3-[4-(7H-pyrrolo[2,3-d]pyrimidin-4-yl)-1H-pyrazol-1-yl]heptanenitrile phosphoric acid salt]
